Data taken from PubChem BioAssay (NCI).
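Step 1: Grow cells in 96-well plates. Step 2: Expose to compound for 48 hours at 5 concentrations. Step 3: Interpolate endpoints linearly; if unreached, use highest concentration. The concentration for full growth arrest is given as TGI.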

Experiments:
Test in all cases: NCI tumour cell line growth inhibition, 48 h
RPMI-8226 leukemia = tested on: RPMI-8226 leukemia
UO-31 renal = tested on: UO-31 renal
UACC-62 melanoma = tested on: UACC-62 melanoma
MOLT-4 leukemia = tested on: MOLT-4 leukemia
HOP-92 NSCLC = tested on: HOP-92 NSCLC
SK-MEL-28 melanoma = tested on: SK-MEL-28 melanoma
LOX IMVI melanoma = tested on: LOX IMVI melanoma
HT29 colon = tested on: HT29 colon
K-562 leukemia = tested on: K-562 leukemia
MDA-N = tested on: MDA-N
HOP-62 NSCLC = tested on: HOP-62 NSCLC
NCI-H23 lung = tested on: NCI-H23 lung
CCRF-CEM leukemia = tested on: CCRF-CEM leukemia
OVCAR-8 ovarian = tested on: OVCAR-8 ovarian
COLO 205 colon = tested on: COLO 205 colon
SK-MEL-2 melanoma = tested on: SK-MEL-2 melanoma
NCI-H460 lung = tested on: NCI-H460 lung
NCI-H522 lung = tested on: NCI-H522 lung
HS 578T breast = tested on: HS 578T breast
SNB-75 CNS = tested on: SNB-75 CNS
SK-OV-3 ovarian = tested on: SK-OV-3 ovarian
NCI-H226 lung = tested on: NCI-H226 lung
HL-60(TB) leukemia = tested on: HL-60(TB) leukemia
SF-539 CNS = tested on: SF-539 CNS
NCI/ADR-RES ovarian = tested on: NCI/ADR-RES ovarian
TK-10 renal = tested on: TK-10 renal
BT-549 breast = tested on: BT-549 breast
ACHN renal = tested on: ACHN renal
UACC-257 melanoma = tested on: UACC-257 melanoma
HCT-116 colon = tested on: HCT-116 colon
DU-145 prostate = tested on: DU-145 prostate
PC-3 prostate = tested on: PC-3 prostate
KM12 colon = tested on: KM12 colon
U251 CNS = tested on: U251 CNS
IGROV1 ovarian = tested on: IGROV1 ovarian
MDA-MB-435 = tested on: MDA-MB-435
A549 NSCLC = tested on: A549 NSCLC
SW-620 colon = tested on: SW-620 colon
CAKI-1 renal = tested on: CAKI-1 renal
T-47D breast = tested on: T-47D breast
M14 melanoma = tested on: M14 melanoma
EKVX NSCLC = tested on: EKVX NSCLC
OVCAR-5 ovarian = tested on: OVCAR-5 ovarian
A498 renal = tested on: A498 renal
SF-268 CNS = tested on: SF-268 CNS
MALME-3M melanoma = tested on: MALME-3M melanoma
SN12C renal = tested on: SN12C renal
OVCAR-3 ovarian = tested on: OVCAR-3 ovarian
RXF 393 renal = tested on: RXF 393 renal
HCT-15 colon = tested on: HCT-15 colon
SF-295 CNS = tested on: SF-295 CNS
SNB-19 CNS = tested on: SNB-19 CNS
MDA-MB-231 breast = tested on: MDA-MB-231 breast
SK-MEL-5 melanoma = tested on: SK-MEL-5 melanoma
786-0 renal = tested on: 786-0 renal
OVCAR-4 ovarian = tested on: OVCAR-4 ovarian
SR leukemia = tested on: SR leukemia
MCF7 breast = tested on: MCF7 breast

`NNC1=N/C(=C\c2ccccc2O)C(=O)N1` was tested, and the TGI (RPMI-8226 leukemia) was over 100 µM, the TGI (UO-31 renal) was over 100 µM and the TGI (UACC-62 melanoma) was over 100 µM. For the same compound, the TGI (MOLT-4 leukemia) was over 100 µM, the TGI (HOP-92 NSCLC) was over 100 µM and the TGI (SK-MEL-28 melanoma) was over 100 µM. It also gave a TGI (LOX IMVI melanoma) of over 100 µM, a TGI (HT29 colon) of over 100 µM and a TGI (K-562 leukemia) of over 100 µM. The TGI (MDA-N) was over 100 µM, the TGI (HOP-62 NSCLC) was over 100 µM and the TGI (NCI-H23 lung) was over 100 µM. For the same compound, the TGI (CCRF-CEM leukemia) was 51.9 µM, the TGI (OVCAR-8 ovarian) was over 100 µM and the TGI (COLO 205 colon) was 77.3 µM. For the same compound, the TGI (SK-MEL-2 melanoma) was over 100 µM, the TGI (NCI-H460 lung) was over 100 µM and the TGI (NCI-H522 lung) was over 100 µM. The TGI (HS 578T breast) was over 100 µM, the TGI (SNB-75 CNS) was over 100 µM and the TGI (SK-OV-3 ovarian) was over 100 µM. For the same compound, the TGI (NCI-H226 lung) was over 100 µM, the TGI (HL-60(TB) leukemia) was 49.6 µM and the TGI (SF-539 CNS) was over 100 µM. The TGI (NCI/ADR-RES ovarian) was over 100 µM, the TGI (TK-10 renal) was over 100 µM and the TGI (BT-549 breast) was over 100 µM. It also gave a TGI (ACHN renal) of over 100 µM, a TGI (UACC-257 melanoma) of over 100 µM and a TGI (HCT-116 colon) of over 100 µM. For the same compound, the TGI (DU-145 prostate) was over 100 µM, the TGI (PC-3 prostate) was over 100 µM and the TGI (KM12 colon) was over 100 µM. For the same compound, the TGI (U251 CNS) was over 100 µM, the TGI (IGROV1 ovarian) was over 100 µM and the TGI (MDA-MB-435) was over 100 µM. The TGI (A549 NSCLC) was over 100 µM, the TGI (SW-620 colon) was over 100 µM and the TGI (CAKI-1 renal) was over 100 µM. The TGI (T-47D breast) was 89.4 µM, the TGI (M14 melanoma) was over 100 µM and the TGI (EKVX NSCLC) was over 100 µM. For the same compound, the TGI (OVCAR-5 ovarian) was over 100 µM, the TGI (A498 renal) was over 100 µM and the TGI (SF-268 CNS) was over 100 µM. For the same compound, the TGI (MALME-3M melanoma) was over 100 µM, the TGI (SN12C renal) was over 100 µM and the TGI (OVCAR-3 ovarian) was over 100 µM. The TGI (RXF 393 renal) was over 100 µM, the TGI (HCT-15 colon) was over 100 µM and the TGI (SF-295 CNS) was over 100 µM. The TGI (SNB-19 CNS) was over 100 µM, the TGI (MDA-MB-231 breast) was over 100 µM and the TGI (SK-MEL-5 melanoma) was over 100 µM. The TGI (786-0 renal) was over 100 µM.
`COc1ccc(-c2cc(-c3cc(F)c(Cl)cc3Cl)[nH]n2)cc1OC` showed a TGI (RPMI-8226 leukemia) of 41 µM, a TGI (UO-31 renal) of over 100 µM and a TGI (MOLT-4 leukemia) of over 100 µM. It also gave a TGI (HOP-92 NSCLC) of 67.8 µM, a TGI (SK-MEL-28 melanoma) of over 100 µM and a TGI (LOX IMVI melanoma) of 42.1 µM. The TGI (HT29 colon) was 76.6 µM, the TGI (K-562 leukemia) was over 100 µM and the TGI (MDA-N) was over 100 µM. It also gave a TGI (HOP-62 NSCLC) of over 100 µM, a TGI (NCI-H23 lung) of over 100 µM and a TGI (CCRF-CEM leukemia) of 75.9 µM. For the same compound, the TGI (OVCAR-4 ovarian) was over 100 µM, the TGI (OVCAR-8 ovarian) was over 100 µM and the TGI (COLO 205 colon) was 47 µM. The TGI (SK-MEL-2 melanoma) was over 100 µM, the TGI (NCI-H460 lung) was over 100 µM and the TGI (NCI-H522 lung) was 81.8 µM. The TGI (HS 578T breast) was over 100 µM, the TGI (SNB-75 CNS) was 61.5 µM and the TGI (SK-OV-3 ovarian) was over 100 µM. The TGI (NCI-H226 lung) was 52.5 µM, the TGI (HL-60(TB) leukemia) was 55 µM and the TGI (SF-539 CNS) was 37.3 µM. It also gave a TGI (NCI/ADR-RES ovarian) of over 100 µM, a TGI (TK-10 renal) of over 100 µM and a TGI (BT-549 breast) of over 100 µM. It also gave a TGI (ACHN renal) of 30.4 µM, a TGI (UACC-257 melanoma) of over 100 µM and a TGI (SR leukemia) of 43.8 µM. For the same compound, the TGI (HCT-116 colon) was 83.6 µM, the TGI (DU-145 prostate) was over 100 µM and the TGI (PC-3 prostate) was 79.1 µM. The TGI (KM12 colon) was over 100 µM, the TGI (U251 CNS) was over 100 µM and the TGI (IGROV1 ovarian) was over 100 µM. It also gave a TGI (MDA-MB-435) of over 100 µM, a TGI (A549 NSCLC) of over 100 µM and a TGI (SW-620 colon) of 74.2 µM. It also gave a TGI (CAKI-1 renal) of over 100 µM, a TGI (T-47D breast) of over 100 µM and a TGI (M14 melanoma) of over 100 µM. It also gave a TGI (EKVX NSCLC) of over 100 µM, a TGI (OVCAR-5 ovarian) of over 100 µM and a TGI (SF-268 CNS) of over 100 µM. For the same compound, the TGI (MALME-3M melanoma) was over 100 µM, the TGI (SN12C renal) was 62.9 µM and the TGI (OVCAR-3 ovarian) was 41.3 µM. It also gave a TGI (RXF 393 renal) of 43.8 µM, a TGI (HCT-15 colon) of over 100 µM and a TGI (SF-295 CNS) of 73.7 µM. The TGI (SNB-19 CNS) was over 100 µM, the TGI (MDA-MB-231 breast) was over 100 µM and the TGI (SK-MEL-5 melanoma) was 47.3 µM. It also gave a TGI (786-0 renal) of 42.4 µM.
`CC1(C)C(OC(=O)c2ccccc2)C[C@]23CCC[C@](C)(C[C@@H](O)C12)C3` (stereo partly drawn) showed a TGI (RPMI-8226 leukemia) of over 100 µM, a TGI (UO-31 renal) of 35.6 µM and a TGI (UACC-62 melanoma) of 29 µM. It also gave a TGI (MOLT-4 leukemia) of 33.7 µM, a TGI (HOP-92 NSCLC) of 32.5 µM and a TGI (SK-MEL-28 melanoma) of 29.8 µM. It also gave a TGI (LOX IMVI melanoma) of 38.9 µM, a TGI (HT29 colon) of 31.4 µM and a TGI (K-562 leukemia) of 54.8 µM. It also gave a TGI (MDA-N) of 36.8 µM, a TGI (HOP-62 NSCLC) of 63.4 µM and a TGI (NCI-H23 lung) of 34 µM. The TGI (CCRF-CEM leukemia) was 37.4 µM, the TGI (OVCAR-4 ovarian) was 46.6 µM and the TGI (OVCAR-8 ovarian) was 36.2 µM. The TGI (MCF7 breast) was 30.6 µM, the TGI (COLO 205 colon) was 33.6 µM and the TGI (SK-MEL-2 melanoma) was 35.8 µM. For the same compound, the TGI (NCI-H460 lung) was 31.3 µM, the TGI (NCI-H522 lung) was 31.4 µM and the TGI (HS 578T breast) was 40.4 µM. For the same compound, the TGI (SNB-75 CNS) was 34.8 µM, the TGI (SK-OV-3 ovarian) was over 100 µM and the TGI (NCI-H226 lung) was 37.5 µM. For the same compound, the TGI (HL-60(TB) leukemia) was over 100 µM, the TGI (NCI/ADR-RES ovarian) was 46.7 µM and the TGI (TK-10 renal) was 91.6 µM. It also gave a TGI (BT-549 breast) of 30.3 µM, a TGI (ACHN renal) of 31.9 µM and a TGI (UACC-257 melanoma) of 35.5 µM. The TGI (SR leukemia) was over 100 µM, the TGI (HCT-116 colon) was 29.1 µM and the TGI (DU-145 prostate) was 52.4 µM. The TGI (PC-3 prostate) was 28.1 µM, the TGI (KM12 colon) was 32.1 µM and the TGI (IGROV1 ovarian) was 36.3 µM. It also gave a TGI (MDA-MB-435) of 32.2 µM, a TGI (A549 NSCLC) of 34.1 µM and a TGI (SW-620 colon) of 27.9 µM. For the same compound, the TGI (CAKI-1 renal) was 40.8 µM, the TGI (T-47D breast) was 43.7 µM and the TGI (M14 melanoma) was 38.9 µM. It also gave a TGI (EKVX NSCLC) of 36.8 µM, a TGI (OVCAR-5 ovarian) of 28.6 µM and a TGI (SF-268 CNS) of 59.5 µM. The TGI (MALME-3M melanoma) was 38.5 µM, the TGI (SN12C renal) was 34.6 µM and the TGI (OVCAR-3 ovarian) was 78.9 µM. The TGI (HCT-15 colon) was 37.1 µM, the TGI (SF-295 CNS) was 28.1 µM and the TGI (SNB-19 CNS) was 47.8 µM. The TGI (SK-MEL-5 melanoma) was 25.8 µM and the TGI (786-0 renal) was 35.7 µM.
